# From patent US12723063B2, “GIPR-agonist compounds” (Eli Lilly and Company, priority 2019, dated 2026)
# *1 amine or outer side, *2 acyl side, *3 side chain or, on linkers, in order; H or OH if unused. Where a SMILES comes first, the peptide text is derived from it. Side-chain parts run from the residue outwards. [ ]: non-standard residue; d: D form. The star is where a group is joined. C20 diacid = O=C(O)CCCCCCCCCCCCCCCCCCC(=O)*; γGlu = O=C(O)[C@H](CCC(=O)[*:2])N[*:1]; αMeF = C[C@](N)(Cc1ccccc1)C(=O)O; 4Pal = N[C@@H](Cc1ccncc1)C(=O)O; αMeL = CC(C)C[C@](C)(N)C(=O)O; AEEA = NCCOCCOCC(=O)O; Aib = CC(C)(N)C(=O)O
# Target: T1, human GcgR (Homo sapiens, UniProt P47871)
# T1 construct: expressed in transfected cells; crude membranes
# T1 sequence (P47871 26-477): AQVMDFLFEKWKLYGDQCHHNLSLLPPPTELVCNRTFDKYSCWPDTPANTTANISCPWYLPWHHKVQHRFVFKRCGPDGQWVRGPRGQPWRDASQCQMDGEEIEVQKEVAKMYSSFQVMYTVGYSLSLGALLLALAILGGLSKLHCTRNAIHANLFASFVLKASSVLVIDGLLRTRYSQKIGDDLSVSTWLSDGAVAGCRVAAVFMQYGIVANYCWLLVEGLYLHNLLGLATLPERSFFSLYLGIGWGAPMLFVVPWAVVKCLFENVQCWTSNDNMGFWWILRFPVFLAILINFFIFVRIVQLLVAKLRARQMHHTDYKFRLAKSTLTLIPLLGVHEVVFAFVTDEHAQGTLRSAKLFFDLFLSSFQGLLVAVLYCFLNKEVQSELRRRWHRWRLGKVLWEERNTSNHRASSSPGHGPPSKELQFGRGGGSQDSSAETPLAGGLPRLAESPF
# Assay: [125I]-Glucagon binding, SPA with WGA beads, 0.1% bacitracin
# Settings: geometric mean, read-out: hGcgR Ki
# Summary of the method: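 SPA competition binding with WGA beads on crude membranes from HEK293 cells stably expressing hGcgR. Buffer: 25 mM HEPES pH 7.4, 2.5 mM CaCl2, 1 mM MgCl2, 0.1% bacitracin, 0.003% Tween-20; 10-point 3-fold dilutions, NSB with 1 μM Gcg.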
structure (smiles),measurement,value
CC[C@H](C)[C@H](NC(=O)[C@H](CO)NC(=O)[C@H](Cc1ccc(O)cc1)NC(=O)[C@H](CC(=O)O)NC(=O)[C@H](CO)NC(=O)[C@@H](NC(=O)[C@](C)(Cc1ccccc1)NC(=O)[C@@H](NC(=O)CNC(=O)[C@H](CCC(=O)O)NC(=O)C(C)(C)NC(=O)[C@@H](N)Cc1ccc(O)cc1)[C@@H](C)O)[C@@H](C)CC)C(=O)N[C@@H](C)C(=O)N[C@@H](CC(C)C)C(=O)N[C@@H](CC(=O)O)C(=O)N[C@@H](CCCCN)C(=O)N[C@@H](CCCCNC(=O)COCCOCCNC(=O)COCCOCCNC(=O)CC[C@H](NC(=O)CCCCCCCCCCCCCCCCCCC(=O)O)C(=O)O)C(=O)N[C@@H](Cc1c[nH]cn1)C(=O)N[C@@H](CCC(N)=O)C(=O)NC(C)(C)C(=O)N[C@@H](CC(=O)O)C(=O)N[C@@H](Cc1ccccc1)C(=O)N[C@H](C(=O)N[C@@H](CCC(=O)O)C(=O)N[C@@H](Cc1ccncc1)C(=O)N[C@@H](CC(C)C)C(=O)N[C@@H](CC(C)C)C(=O)N[C@@H](CCC(=O)O)C(=O)NCC(=O)NCC(=O)N1CCC[C@H]1C(=O)N[C@@H](CO)C(=O)N[C@@H](CO)C(=O)NCC(=O)N[C@@H](C)C(=O)N1CCC[C@H]1C(=O)N1CCC[C@H]1C(=O)N1CCC[C@H]1C(=O)N[C@@H](CO)C(N)=O)C(C)C [Example 44] (H-Y[Aib]EGT[αMeF]ISDYSIALDKK([AEEA-AEEA-γGlu-C20 diacid])HQ[Aib]DFVE[4Pal]LLEGGPSSGAPPPS-NH2),Ki,50 nM
CC[C@H](C)[C@H](NC(=O)[C@H](Cc1ccccc1)NC(=O)[C@@H](NC(=O)CNC(=O)[C@H](CCC(=O)O)NC(=O)C(C)(C)NC(=O)[C@@H](N)Cc1ccc(O)cc1)[C@@H](C)O)C(=O)N[C@@H](CO)C(=O)N[C@@H](CC(=O)O)C(=O)N[C@@H](Cc1ccc(O)cc1)C(=O)N[C@@H](CO)C(=O)N[C@H](C(=O)N[C@@](C)(CC(C)C)C(=O)N[C@@H](CC(C)C)C(=O)N[C@@H](CC(=O)O)C(=O)N[C@@H](CCCCN)C(=O)N[C@@H](CCCCNC(=O)COCCOCCNC(=O)COCCOCCNC(=O)CC[C@H](NC(=O)CCCCCCCCCCCCCCCCCCC(=O)O)C(=O)O)C(=O)N[C@@H](Cc1c[nH]cn1)C(=O)N[C@@H](CCC(N)=O)C(=O)NC(C)(C)C(=O)N[C@@H](CC(=O)O)C(=O)N[C@@H](Cc1ccccc1)C(=O)N[C@H](C(=O)N[C@@H](CCC(=O)O)C(=O)N[C@@H](Cc1ccncc1)C(=O)N[C@@H](CC(C)C)C(=O)N[C@@H](CC(C)C)C(=O)N[C@@H](CCC(=O)O)C(=O)N[C@H](C(=O)NCC(=O)N1CCC[C@H]1C(=O)N[C@@H](CO)C(=O)N[C@@H](CO)C(=O)NCC(=O)N[C@@H](C)C(=O)N1CCC[C@H]1C(=O)N1CCC[C@H]1C(=O)N1CCC[C@H]1C(=O)N[C@@H](CO)C(N)=O)[C@@H](C)O)C(C)C)[C@@H](C)CC [Example 45] (H-Y[Aib]EGTFISDYSI[αMeL]LDKK([AEEA-AEEA-γGlu-C20 diacid])HQ[Aib]DFVE[4Pal]LLETGPSSGAPPPS-NH2),Ki,660 nM
CC[C@H](C)[C@H](NC(=O)[C@H](Cc1ccccc1)NC(=O)[C@@H](NC(=O)CNC(=O)[C@H](CCC(=O)O)NC(=O)C(C)(C)NC(=O)[C@@H](N)Cc1ccc(O)cc1)[C@@H](C)O)C(=O)N[C@@H](CO)C(=O)N[C@@H](CC(=O)O)C(=O)N[C@@H](Cc1ccc(O)cc1)C(=O)N[C@@H](CO)C(=O)N[C@H](C(=O)N[C@@](C)(CC(C)C)C(=O)N[C@@H](CC(C)C)C(=O)N[C@@H](CC(=O)O)C(=O)N[C@@H](CCCCN)C(=O)N[C@@H](CCCCNC(=O)COCCOCCNC(=O)COCCOCCNC(=O)CC[C@H](NC(=O)CCCCCCCCCCCCCCCCCCC(=O)O)C(=O)O)C(=O)N[C@@H](Cc1c[nH]cn1)C(=O)N[C@@H](CCC(N)=O)C(=O)NC(C)(C)C(=O)N[C@@H](CC(=O)O)C(=O)N[C@@H](Cc1ccccc1)C(=O)N[C@H](C(=O)N[C@@H](CCC(=O)O)C(=O)N[C@@H](Cc1ccncc1)C(=O)N[C@@H](CC(C)C)C(=O)N[C@@H](CC(C)C)C(=O)N[C@@H](CCC(=O)O)C(=O)N[C@@H](CCC(N)=O)C(=O)NCC(=O)N1CCC[C@H]1C(=O)N[C@@H](CO)C(=O)N[C@@H](CO)C(=O)NCC(=O)N[C@@H](C)C(=O)N1CCC[C@H]1C(=O)N1CCC[C@H]1C(=O)N1CCC[C@H]1C(=O)N[C@@H](CO)C(N)=O)C(C)C)[C@@H](C)CC [Example 46] (H-Y[Aib]EGTFISDYSI[αMeL]LDKK([AEEA-AEEA-γGlu-C20 diacid])HQ[Aib]DFVE[4Pal]LLEQGPSSGAPPPS-NH2),Ki,435 nM
CC[C@H](C)[C@H](NC(=O)[C@H](Cc1ccccc1)NC(=O)[C@@H](NC(=O)CNC(=O)[C@H](CCC(=O)O)NC(=O)C(C)(C)NC(=O)[C@@H](N)Cc1ccc(O)cc1)[C@@H](C)O)C(=O)N[C@@H](CO)C(=O)N[C@@H](CC(=O)O)C(=O)N[C@@H](Cc1ccc(O)cc1)C(=O)N[C@@H](CO)C(=O)N[C@H](C(=O)N[C@@](C)(CC(C)C)C(=O)N[C@@H](CC(C)C)C(=O)N[C@@H](CC(=O)O)C(=O)N[C@@H](CCCCN)C(=O)N[C@@H](CCCCNC(=O)COCCOCCNC(=O)COCCOCCNC(=O)CC[C@H](NC(=O)CCCCCCCCCCCCCCCCCCC(=O)O)C(=O)O)C(=O)N[C@@H](Cc1c[nH]cn1)C(=O)N[C@@H](CCC(N)=O)C(=O)NC(C)(C)C(=O)N[C@@H](CC(=O)O)C(=O)N[C@@H](Cc1ccccc1)C(=O)N[C@H](C(=O)N[C@@H](CCC(=O)O)C(=O)N[C@@H](Cc1ccncc1)C(=O)N[C@@H](CC(C)C)C(=O)N[C@@H](CC(C)C)C(=O)N[C@@H](CCC(=O)O)C(=O)NCC(=O)NCC(=O)N1CCC[C@H]1C(=O)N[C@@H](CO)C(=O)N[C@@H](CO)C(=O)NCC(=O)N[C@@H](C)C(=O)N1CCC[C@H]1C(=O)N1CCC[C@H]1C(=O)N1CCC[C@H]1C(=O)N[C@@H](CO)C(N)=O)C(C)C)[C@@H](C)CC [Example 47] (H-Y[Aib]EGTFISDYSI[αMeL]LDKK([AEEA-AEEA-γGlu-C20 diacid])HQ[Aib]DFVE[4Pal]LLEGGPSSGAPPPS-NH2),Ki,175 nM
CC[C@H](C)[C@H](NC(=O)[C@H](Cc1ccccc1)NC(=O)[C@@H](NC(=O)CNC(=O)[C@H](CCC(=O)O)NC(=O)C(C)(C)NC(=O)[C@@H](N)Cc1ccc(O)cc1)[C@@H](C)O)C(=O)N[C@@H](CO)C(=O)N[C@@H](CC(=O)O)C(=O)N[C@@H](Cc1ccc(O)cc1)C(=O)N[C@@H](CO)C(=O)N[C@H](C(=O)N[C@@](C)(CC(C)C)C(=O)N[C@@H](CC(C)C)C(=O)N[C@@H](CC(=O)O)C(=O)N[C@@H](CCCCN)C(=O)N[C@@H](CCCCNC(=O)COCCOCCNC(=O)COCCOCCNC(=O)CC[C@H](NC(=O)CCCCCCCCCCCCCCCCCCC(=O)O)C(=O)O)C(=O)N[C@@H](Cc1c[nH]cn1)C(=O)N[C@@H](CCC(N)=O)C(=O)NC(C)(C)C(=O)N[C@@H](CC(=O)O)C(=O)N[C@@H](Cc1ccccc1)C(=O)N[C@H](C(=O)N[C@@H](CCC(=O)O)C(=O)N[C@@H](Cc1ccncc1)C(=O)N[C@@H](CC(C)C)C(=O)N[C@@H](CC(C)C)C(=O)N[C@@H](C)C(=O)NCC(=O)NCC(=O)N1CCC[C@H]1C(=O)N[C@@H](CO)C(=O)N[C@@H](CO)C(=O)NCC(=O)N[C@@H](C)C(=O)N1CCC[C@H]1C(=O)N1CCC[C@H]1C(=O)N1CCC[C@H]1C(=O)N[C@@H](CO)C(N)=O)C(C)C)[C@@H](C)CC [Example 48],Ki,267 nM
CC[C@H](C)[C@H](NC(=O)[C@H](Cc1ccccc1)NC(=O)[C@@H](NC(=O)CNC(=O)[C@H](CCC(=O)O)NC(=O)C(C)(C)NC(=O)[C@@H](N)Cc1ccc(O)cc1)[C@@H](C)O)C(=O)N[C@@H](CO)C(=O)N[C@@H](CC(=O)O)C(=O)N[C@@H](Cc1ccc(O)cc1)C(=O)N[C@@H](CO)C(=O)N[C@H](C(=O)N[C@@](C)(CC(C)C)C(=O)N[C@@H](CC(C)C)C(=O)N[C@@H](CC(=O)O)C(=O)N[C@@H](CCCCN)C(=O)N[C@@H](CCCCNC(=O)COCCOCCNC(=O)COCCOCCNC(=O)CC[C@H](NC(=O)CCCCCCCCCCCCCCCCC(=O)O)C(=O)O)C(=O)N[C@@H](Cc1c[nH]cn1)C(=O)N[C@@H](CCC(N)=O)C(=O)NC(C)(C)C(=O)N[C@@H](CC(=O)O)C(=O)N[C@@H](Cc1ccccc1)C(=O)N[C@H](C(=O)N[C@@H](CCC(=O)O)C(=O)N[C@@H](Cc1ccncc1)C(=O)N[C@@H](CC(C)C)C(=O)N[C@@H](CC(C)C)C(=O)N[C@@H](C)C(=O)NCC(=O)NCC(=O)N1CCC[C@H]1C(=O)N[C@@H](CO)C(=O)N[C@@H](CO)C(=O)NCC(=O)N[C@@H](C)C(=O)N1CCC[C@H]1C(=O)N1CCC[C@H]1C(=O)N1CCC[C@H]1C(=O)N[C@@H](CO)C(N)=O)C(C)C)[C@@H](C)CC [Example 49],Ki,> 960 nM
CC[C@H](C)[C@H](NC(=O)[C@H](CO)NC(=O)[C@H](Cc1ccc(O)cc1)NC(=O)[C@H](CC(=O)O)NC(=O)[C@H](CO)NC(=O)[C@@H](NC(=O)[C@](C)(Cc1ccccc1)NC(=O)[C@@H](NC(=O)CNC(=O)[C@H](CCC(=O)O)NC(=O)C(C)(C)NC(=O)[C@@H](N)Cc1ccc(O)cc1)[C@@H](C)O)[C@@H](C)CC)C(=O)N[C@@](C)(CC(C)C)C(=O)N[C@@H](CC(C)C)C(=O)N[C@@H](CC(=O)O)C(=O)N[C@@H](CCCCN)C(=O)N[C@@H](CCCCNC(=O)COCCOCCNC(=O)COCCOCCNC(=O)CC[C@H](NC(=O)CCCCCCCCCCCCCCCCCCC(=O)O)C(=O)O)C(=O)N[C@@H](Cc1c[nH]cn1)C(=O)N[C@@H](CCC(N)=O)C(=O)NC(C)(C)C(=O)N[C@@H](CC(=O)O)C(=O)N[C@@H](Cc1ccccc1)C(=O)N[C@H](C(=O)N[C@@H](CCC(=O)O)C(=O)N[C@@H](Cc1ccncc1)C(=O)N[C@@H](CC(C)C)C(=O)N[C@@H](CC(C)C)C(=O)N[C@@H](C)C(=O)NCC(=O)NCC(=O)N1CCC[C@H]1C(=O)N[C@@H](CO)C(=O)N[C@@H](CO)C(=O)NCC(=O)N[C@@H](C)C(=O)N1CCC[C@H]1C(=O)N1CCC[C@H]1C(=O)N1CCC[C@H]1C(=O)N[C@@H](CO)C(N)=O)C(C)C [Example 50] (H-Y[Aib]EGT[αMeF]ISDYSI[αMeL]LDKK([AEEA-AEEA-γGlu-C20 diacid])HQ[Aib]DFVE[4Pal]LLAGGPSSGAPPPS-NH2),Ki,23.4 nM
